PMC10671849, “Synthesis and Evaluation of Marine-Inspired Compounds Result in Hybrids with Antitrypanosomal and Antileishmanial Activities” (Marine Drugs, 2023)
In brackets after ≈: the same amount, converted by molar mass. Read-outs that look alike come from different tables or passages of the source.

How the values were obtained:
Format in all cases: cell-based
[1] = system: L. infantum promastigotes; assay: Anti-Leishmania activity, resazurin-based assay; conditions: read-out: Anti-Parasitic Activity IC50 (µM) 95% CI, L. infantum Promastigotes
Procedure: Promastigotes from the L. infantum strain (MHOM/MA/67/ITMAP-263) were grown in 5-mL T25 flasks in Schneider’s insect medium supplemented with 10% heat-inactivated fetal bovine serum (FBS), 200 U/mL penicillin/streptomycin, 6 µg/mL Phenol Red, and 5 mM HEPES. The cultures were maintained in an incubator at 27 °C and diluted to 2 × 10^5/mL every 5 days. For the assays, the parasites used were equivalent to late/log with 2 or 3 days of culture.
The compounds’ efficacy against L. infantum promastigotes was evaluated using a resazurin-based assay. Parasites were added to 100 µL of serial dilutions of compounds in supplemented complete medium at a cell density of 5 × 10^5/mL. As a quality control, a dose–response curve to the antileishmanial drug miltefosine was included in all the assays. The final volume of the assay was 200 µL/well. Each condition was carried out in duplicate. Following 72 h of incubation at the specific conditions for parasites, 20 µL of a 0.5 mM resazurin solution was added, and the plates were incubated for a further 4 h under the same conditions. Fluorescence was measured at 544 nm and 590 nm excitation and emission wavelengths, respectively, using a Synergy 2 Multi-Mode Reader (Biotek, Winooski, VT, USA). Results are shown as % of parasite growth inhibition compared to control (untreated parasites) and represent the average of at least three independent experiments. The effect was evaluated by the determination of the IC50 value (concentration required to inhibit growth in 50%) and was calculated by non-linear regression curves using GraphPad Prism software, version 8.1.1 for Windows (GraphPad Software, San Diego, CA, USA).

[2] = system: Aspergillus fumigatus ATCC 240305; assay: Antifungal broth microdilution (CLSI M38-A2), MIC/MLC; conditions: for MIC: Aspergillus fumigatus, ATCC240305, broth microdilution, 16 to 512 µg/mL, 48 h at 36 °C
Procedure: (§1) All tested compounds (9a–9d, 10a–10c, 13, 14, and eugenol (1)) were prepared in DMSO (Sigma-Aldrich, St. Louis, MO, USA) at a concentration of 10 mg/mL. The reference drugs used (voriconazole (Sigma-Aldrich, St. Louis, MO, USA) for fungi and quality control; gentamicin (Sigma-Aldrich, St. Louis, MO, USA) for bacterial and quality control) were prepared at 6.4 mg/mL. The stock solutions of the compounds were stored at –20 °C until immediately before the assays and then were diluted in fresh culture medium, RPMI-1640 medium (Biochrom AG, Berlin, Germany) buffered with 3-(N-morpholino)propanesulfonic acid (MOPS—Sigma-Aldrich, St. Louis, MO, USA) for fungi and cation-adjusted Mueller–Hinton broth (MHBII—Becton Dickinson, France) for bacteria, henceforth referred to as RPMI and MHB, respectively.
(§2) Fungal strains, including reference strains and clinical isolates, were used for the study of the antifungal activity: a yeast reference strain from American Type Culture Collection (ATCC), Candida albicans ATCC 10231; filamentous fungi reference strain Aspergillus fumigatus ATCC 240305; and a clinical isolate of dermatophytes Trichophyton rubrum FF5. Candida krusei ATCC 6258 was used as a quality control. All fungal strains were stored in Sabouraud dextrose broth (SDB—Bio-Mèrieux, Marcy L’Etoile, France) with glycerol (20%) at −80 °C and were subcultured in Sabouraud dextrose agar (SDA—Bio-Mèrieux, Marcy L’Etoile, France) for 24–72 h (yeasts and A. fumigatus) or 5–7 days (T. rubrum) before each assay to obtain optimal growth and purity conditions. Two bacteria strains were used, one Gram positive and one Gram negative: Staphylococcus aureus ATCC 25923 and Escherichia coli ATCC 25922, respectively. The bacterial strains were stored in trypticase soy broth (TSB—Biolife, Milan, Italy) with glycerol (10%) at −80 °C and subcultured in Mueller–Hinton agar (MHA—Bio-Mèrieux, Marcy L’Etoile, France) for 24 h before each assay.
(§3) For the purpose of quantitatively measuring the antifungal activity in vitro, a broth microdilution method was used to determine the MICs using the CLSI reference protocols M27-A3 [27] for yeasts and M38-A2 [28] for filamentous fungi. In short, two-fold serial dilutions of each stock solution were prepared using RPMI medium (pH 7) to obtain a range of test concentrations from 16 to 512 μg/mL. The yeasts or spore suspensions were prepared from 24 to 72-h cultures (yeasts and Aspergillus) or from 5–7 days of cultures (dermatophyte) in saline solution (with a drop of Tween 20 for the filamentous fungi). The transmittance of the cell density of yeasts was adjusted to 0.5 McFarland standard, and for filamentous fungi, the spores were counted using a Neubauer camera. Dilutions were performed using RPMI to obtain cell final concentrations in the plate of 0.5–2.5 × 10^3 colony forming units (CFU)/mL for yeasts, 0.4–5 × 10^4 CFU/mL for Aspergillus, and 1–3 × 10^3 CFU/mL for dermatophytes. Plates with the prepared serial dilutions of the tested compounds were inoculated with the same volume of the fungal suspension, and sterility (wells with only culture medium), growth (wells with cell suspensions in culture medium), and DMSO controls (wells with cell suspensions in culture medium containing 1% DMSO) were included in each assay. […] For the tested compounds, MIC values were considered the minimum concentration that inhibited the yeast growth by 100% compared to the growth control. The reference drug, voriconazole, was tested against C. krusei ATCC 6258 as a quality control, and the results were within the limits of CLSI reference documents.
(§4) After MIC readings, 10 μL of suspension were collected from wells corresponding to the MIC and the highest concentration following the MIC and were deposited in SDA plates. The plates were incubated following the conditions previously mentioned for the MIC evaluation, and the MLC was determined as the lowest concentration at which no fungal growth is observed.

Trichophyton rubrum FF5 = assay: as above; conditions: for MIC: Trichophyton rubrum, FF5, broth microdilution, read-out: MIC T. rubrum; for MIC / MIC T. rubrum: 16 to 512 µg/mL, 5–7 days at 26 °C; for MIC T. rubrum: broth microdilution; for MLC T. rubrum: minimum lethal concentration, subculture on SDA after MIC reading
Procedure: as §1, §2, §3, §4

[3] = 72 h incubation, resazurin, highest concentration tested 40 µM, 95% CI in parentheses

| SMILES | IC50 [1, 3] | MIC [2] | MIC (Trichophyton rubrum FF5) | MIC T. rubrum (Trichophyton rubrum FF5) | MLC T. rubrum (Trichophyton rubrum FF5) | IC50 ([1]; 72 h) | MLC A. fumigatus ([2]; minimum lethal concentration, subculture on SDA after MIC reading) |
| --- | --- | --- | --- | --- | --- | --- | --- |
| C=CCc1cc(Cn2cc(C(=O)Nc3ccccc3C(N)=O)nn2)c(O)c(OC)c1 [9a, 1-(5-allyl-2-hydroxy-3-methoxybenzyl)-N-(2-carbamoylphenyl)-1H-1,2,3-triazole-4-carboxamide] | > 40 µM | > 512 µg/mL | 512 µg/mL (≈ 1260 µM) | 256 to 512 µg/mL | > 512 µg/mL |  |  |
| C=CCc1cc(Cn2cc(C(=O)Nc3ccc(OC)cc3C(N)=O)nn2)c(O)c(OC)c1 [9b, 1-(5-allyl-2-hydroxy-3-methoxybenzyl)-N-(2-carbamoyl-4-methoxyphenyl)-1H-1,2,3-triazole-4-carboxamide] | > 40 µM | > 512 µg/mL | > 512 µg/mL |  |  |  |  |
| C=CCc1cc(Cn2cc(C(=O)Nc3ccc(F)cc3C(N)=O)nn2)c(O)c(OC)c1 [9c, 1-(5-allyl-2-hydroxy-3-methoxybenzyl)-N-(2-carbamoyl-4-fluorophenyl)-1H-1,2,3-triazole-4-carboxamide] | 7.54 µM | > 512 µg/mL | > 512 µg/mL |  |  |  |  |
| C=CCc1cc(Cn2cc(C(=O)Nc3ccc(Cl)cc3C(N)=O)nn2)c(O)c(OC)c1 [9d, 1-(5-allyl-2-hydroxy-3-methoxybenzyl)-N-(2-carbamoyl-4-chlorophenyl)-1H-1,2,3-triazole-4-carboxamide] | > 40 µM | > 512 µg/mL | 512 µg/mL (≈ 1160 µM) | 256 to 512 µg/mL | > 512 µg/mL |  |  |
| C=CCc1cc(Cn2cc(-c3nc4ccccc4c(=O)[nH]3)nn2)c(O)c(OC)c1 [10a, 2-(1-(5-allyl-2-hydroxy-3-methoxybenzyl)-1H-1,2,3-triazol-4-yl)quinazolin-4(3H)-one] | > 40 µM | > 512 µg/mL | 512 µg/mL (≈ 1310 µM) | 256 to 512 µg/mL | > 512 µg/mL |  |  |
| C=CCc1cc(Cn2cc(-c3nc4ccc(OC)cc4c(=O)[nH]3)nn2)c(O)c(OC)c1 [10b, 2-(1-(5-allyl-2-hydroxy-3-methoxybenzyl)-1H-1,2,3-triazol-4-yl)-6-methoxyquinazolin-4(3H)-one] | > 40 µM | > 512 µg/mL | > 512 µg/mL |  |  |  |  |
| C=CCc1cc(Cn2cc(-c3nc4ccc(F)cc4c(=O)[nH]3)nn2)c(O)c(OC)c1 [10c, 2-(1-(5-allyl-2-hydroxy-3-methoxybenzyl)-1H-1,2,3-triazol-4-yl)-6-fluoroquinazolin-4(3H)-one] | > 40 µM | > 512 µg/mL | 512 µg/mL (≈ 1260 µM) | 256 to 512 µg/mL | > 512 µg/mL |  |  |
| C=CCc1ccc(O)c(OC)c1 [Eugenol, eugenol, reference compound] |  | 512 µg/mL (≈ 3120 µM) | 256 µg/mL (≈ 1560 µM) |  |  | > 40 µM | > 512 µg/mL |
| C=CCc1ccc(OCc2cn(CC(=O)Nc3ccccc3C(=O)O)nn2)c(OC)c1 [compound 13, 2-(2-(4-((4-allyl-2-methoxyphenoxy)methyl)-1H-1,2,3-triazol-1-yl)acetamido) benzoic acid] | > 40 µM | > 512 µg/mL | > 512 µg/mL |  |  |  |  |
| C=CCc1cc(Cn2cc(-c3nc4ccccc4c(=O)o3)nn2)c(O)c(OC)c1 [compound 14, 2-(1-(5-allyl-2-hydroxy-3-methoxybenzyl)-1H-1,2,3-triazol-4-yl)-4H-benzo[d][1,3]oxazin-4-one] | > 40 µM | > 512 µg/mL | 256 to 512 µg/mL (≈ 656 to 1310 µM) | 256 to 512 µg/mL | > 512 µg/mL |  |  |
